Measured values published in US12304932B2, “PACAP stabilized peptide” (SENJU PHARMACEUTICAL CO., LTD., priority 2017, dated 2025).
Square brackets hold non-standard residues; d marks the D form. Peptide text beside a SMILES is read from it. Ala(1H-tetrazol-5-yl) = N[C@@H](Cc1nnn[nH]1)C(=O)O

Assay: Peptide stability tests 2 and 3: Tris buffer pH 7.0, stored at 60° C., HPLC conditions 2
Format: physicochemical
Conditions: 100 μM peptide, Tris buffer pH 7.0, 60° C.; for survival rate after correction for water, 60° C., 2-week storage: 2 weeks
Experimental: (§1) Peptides 1, 2 and 6 to 9 synthesized in Example 2 were weighed and dissolved in Tris buffer (pH 7.0) to prepare 1.0 mM peptide solutions. The solutions were filtered with a Chromatdisk (product of Merck Millipore, Millex-GV, 0.22 μm). Each filtrate was diluted to 100 μM with Tris buffer (pH 7.0) and dispensed into a tube (Protein LoBind Tube by Eppendorf Co.). The prepared peptide solutions were incubated for 1 week or 2 weeks in a 60° C. thermostatic bath to obtain stored samples. A simultaneously prepared sample among the peptide solutions that was not stored was used as a standard sample (initial sample). The standard sample and the stored samples were stored at −30° C. until sample analysis.
Each stored sample was measured under the following HPLC analysis conditions 2, and the survival rate after correction for water for each peptide among the stored samples was calculated in the same manner as Example 3.
Column: XSelect CSH C18 by Waters Co., 5 μm, 4.6×250 mm
Guard column: XSelect CSH C18 by Waters. Co., 5 μm, 4.6×20 mm Guard Cartridge
Detection wavelength: 220 nm
Mobile phase A: 0.1% formic acid in water
Mobile phase B: 0.1% formic acid in acetonitrile
Measuring time: 20 minutes
Measuring sample injection rate: 50 μL
Column temperature: 40° C.
Mobile phase delivery: The mixing ratio of mobile phase A and mobile phase B was varied as shown in Table 5 for linear concentration gradient control.
as §1, with “Peptides 12 to 25, 27” for “Peptides 1, 2”, “and 28” for “and 6 to 9”, “for one” for “for 1”
The survival rate after correction for water for each peptide among the stored samples was calculated in the same manner as Example 4, and the results are shown in Table 7.
as §1, with “29” for “1, 2 and 6”, “34” for “9”, “for” for “for 1 week or”
The survival rate after correction for water for each peptide among the stored samples was calculated in the same manner as Example 4, and the results are shown in Table 7-2.

| Compound | survival rate after correction for water, 60° C., 1-week storage [%] | survival rate after correction for water, 60° C., 2-week storage [%] |
| --- | --- | --- |
| CC[C@H](C)[C@H](NC(=O)CNC(=O)[C@H](Cc1nnn[nH]1)NC(=O)[C@H](C)NC(=O)[C@H](Cc1c[nH]cn1)NC(C)=O)C(=O)N[C@@H](Cc1ccccc1)C(=O)N[C@H](C(=O)N[C@@H](Cc1nnn[nH]1)C(=O)N[C@@H](CO)C(=O)N[C@@H](Cc1ccc(O)cc1)C(=O)N[C@@H](CO)C(=O)N[C@@H](CCCNC(=N)N)C(=O)N[C@@H](Cc1ccc(O)cc1)C(=O)N[C@@H](CCCNC(=N)N)C(=O)N[C@@H](CCCCN)C(=O)N[C@@H](CCC(N)=O)C(=O)N[C@@H](CC(C)C)C(=O)N[C@@H](C)C(=O)N[C@H](C(=O)N[C@@H](CCCCN)C(=O)N[C@@H](CCCCN)C(=O)N[C@@H](Cc1ccc(O)cc1)C(=O)N[C@@H](CC(C)C)C(=O)N[C@@H](C)C(=O)N[C@@H](C)C(=O)N[C@H](C(=O)N[C@@H](CC(C)C)C(N)=O)C(C)C)C(C)C)[C@@H](C)O [Peptide 14] (Ac-HA[Ala(1H-tetrazol-5-yl)]GIFT[Ala(1H-tetrazol-5-yl)]SYSRYRKQLAVKKYLAAVL-NH2) | 96.7 | 94.5 |
| CC[C@H](C)[C@H](NC(=O)CNC(=O)[C@H](Cc1nnn[nH]1)NC(=O)[C@H](CO)NC(=O)[C@H](Cc1c[nH]cn1)NC(C)=O)C(=O)N[C@@H](Cc1ccccc1)C(=O)N[C@H](C(=O)N[C@@H](Cc1nnn[nH]1)C(=O)N[C@@H](C)C(=O)N[C@@H](Cc1ccc(O)cc1)C(=O)N[C@@H](CO)C(=O)N[C@@H](CCCNC(=N)N)C(=O)N[C@@H](Cc1ccc(O)cc1)C(=O)N[C@@H](CCCNC(=N)N)C(=O)N[C@@H](CCCCN)C(=O)N[C@@H](CCC(N)=O)C(=O)N[C@@H](CC(C)C)C(=O)N[C@@H](C)C(=O)N[C@H](C(=O)N[C@@H](CCCCN)C(=O)N[C@@H](CCCCN)C(=O)N[C@@H](Cc1ccc(O)cc1)C(=O)N[C@@H](CC(C)C)C(=O)N[C@@H](C)C(=O)N[C@@H](C)C(=O)N[C@H](C(=O)N[C@@H](CC(C)C)C(N)=O)C(C)C)C(C)C)[C@@H](C)O [Peptide 15] (Ac-HS[Ala(1H-tetrazol-5-yl)]GIFT[Ala(1H-tetrazol-5-yl)]AYSRYRKQLAVKKYLAAVL-NH2) | 97.3 | 94.9 |
| CC[C@H](C)[C@H](NC(=O)CNC(=O)[C@H](Cc1nnn[nH]1)NC(=O)[C@H](CO)NC(=O)[C@H](Cc1c[nH]cn1)NC(C)=O)C(=O)N[C@@H](Cc1ccccc1)C(=O)N[C@H](C(=O)N[C@@H](Cc1nnn[nH]1)C(=O)N[C@@H](CO)C(=O)N[C@@H](Cc1ccc(O)cc1)C(=O)N[C@@H](C)C(=O)N[C@@H](CCCNC(=N)N)C(=O)N[C@@H](Cc1ccc(O)cc1)C(=O)N[C@@H](CCCNC(=N)N)C(=O)N[C@@H](CCCCN)C(=O)N[C@@H](CCC(N)=O)C(=O)N[C@@H](CC(C)C)C(=O)N[C@@H](C)C(=O)N[C@H](C(=O)N[C@@H](CCCCN)C(=O)N[C@@H](CCCCN)C(=O)N[C@@H](Cc1ccc(O)cc1)C(=O)N[C@@H](CC(C)C)C(=O)N[C@@H](C)C(=O)N[C@@H](C)C(=O)N[C@H](C(=O)N[C@@H](CC(C)C)C(N)=O)C(C)C)C(C)C)[C@@H](C)O [Peptide 16] (Ac-HS[Ala(1H-tetrazol-5-yl)]GIFT[Ala(1H-tetrazol-5-yl)]SYARYRKQLAVKKYLAAVL-NH2) | 98.1 | 93.5 |
| CC[C@H](C)[C@H](NC(=O)CNC(=O)[C@H](Cc1nnn[nH]1)NC(=O)[C@H](CO)NC(=O)[C@H](Cc1c[nH]cn1)NC(C)=O)C(=O)N[C@@H](Cc1ccccc1)C(=O)N[C@H](C(=O)N[C@@H](Cc1nnn[nH]1)C(=O)N[C@@H](CO)C(=O)N[C@@H](Cc1ccc(O)cc1)C(=O)N[C@@H](CO)C(=O)N[C@@H](CCCNC(=N)N)C(=O)N[C@@H](Cc1ccc(O)cc1)C(=O)N[C@@H](CCCNC(=N)N)C(=O)N[C@@H](CCCCN)C(=O)N[C@@H](C)C(=O)N[C@@H](CC(C)C)C(=O)N[C@@H](C)C(=O)N[C@H](C(=O)N[C@@H](CCCCN)C(=O)N[C@@H](CCCCN)C(=O)N[C@@H](Cc1ccc(O)cc1)C(=O)N[C@@H](CC(C)C)C(=O)N[C@@H](C)C(=O)N[C@@H](C)C(=O)N[C@H](C(=O)N[C@@H](CC(C)C)C(N)=O)C(C)C)C(C)C)[C@@H](C)O [Peptide 17] (Ac-HS[Ala(1H-tetrazol-5-yl)]GIFT[Ala(1H-tetrazol-5-yl)]SYSRYRKALAVKKYLAAVL-NH2) | 97.8 | 93.4 |
| CC[C@H](C)[C@H](NC(=O)CNC(=O)[C@H](Cc1nnn[nH]1)NC(=O)[C@H](CO)NC(=O)[C@H](Cc1c[nH]cn1)NC(C)=O)C(=O)N[C@@H](Cc1ccccc1)C(=O)N[C@H](C(=O)N[C@@H](Cc1nnn[nH]1)C(=O)N[C@@H](CO)C(=O)N[C@@H](Cc1ccc(O)cc1)C(=O)N[C@@H](CO)C(=O)N[C@@H](CCCNC(=N)N)C(=O)N[C@@H](Cc1ccc(O)cc1)C(=O)N[C@@H](CCCNC(=N)N)C(=O)N[C@@H](CCCCN)C(=O)N[C@@H](CCC(N)=O)C(=O)N[C@@H](C)C(=O)N[C@@H](C)C(=O)N[C@H](C(=O)N[C@@H](CCCCN)C(=O)N[C@@H](CCCCN)C(=O)N[C@@H](Cc1ccc(O)cc1)C(=O)N[C@@H](CC(C)C)C(=O)N[C@@H](C)C(=O)N[C@@H](C)C(=O)N[C@H](C(=O)N[C@@H](CC(C)C)C(N)=O)C(C)C)C(C)C)[C@@H](C)O [Peptide 18] (Ac-HS[Ala(1H-tetrazol-5-yl)]GIFT[Ala(1H-tetrazol-5-yl)]SYSRYRKQAAVKKYLAAVL-NH2) | 96.7 | 90.6 |
| CC[C@H](C)[C@H](NC(=O)CNC(=O)[C@H](Cc1nnn[nH]1)NC(=O)[C@H](CO)NC(=O)[C@H](Cc1c[nH]cn1)NC(C)=O)C(=O)N[C@@H](Cc1ccccc1)C(=O)N[C@H](C(=O)N[C@@H](Cc1nnn[nH]1)C(=O)N[C@@H](CO)C(=O)N[C@@H](Cc1ccc(O)cc1)C(=O)N[C@@H](CO)C(=O)N[C@@H](CCCNC(=N)N)C(=O)N[C@@H](Cc1ccc(O)cc1)C(=O)N[C@@H](CCCNC(=N)N)C(=O)N[C@@H](CCCCN)C(=O)N[C@@H](CCC(N)=O)C(=O)N[C@@H](CC(C)C)C(=O)N[C@@H](C)C(=O)N[C@@H](C)C(=O)N[C@@H](CCCCN)C(=O)N[C@@H](CCCCN)C(=O)N[C@@H](Cc1ccc(O)cc1)C(=O)N[C@@H](CC(C)C)C(=O)N[C@@H](C)C(=O)N[C@@H](C)C(=O)N[C@H](C(=O)N[C@@H](CC(C)C)C(N)=O)C(C)C)[C@@H](C)O [Peptide 19] (Ac-HS[Ala(1H-tetrazol-5-yl)]GIFT[Ala(1H-tetrazol-5-yl)]SYSRYRKQLAAKKYLAAVL-NH2) | 95.8 | 92.7 |
| CC[C@H](C)[C@H](NC(=O)CNC(=O)[C@H](Cc1nnn[nH]1)NC(=O)[C@H](CO)NC(=O)[C@H](Cc1c[nH]cn1)NC(C)=O)C(=O)N[C@@H](Cc1ccccc1)C(=O)N[C@H](C(=O)N[C@@H](Cc1nnn[nH]1)C(=O)N[C@@H](CO)C(=O)N[C@@H](Cc1ccc(O)cc1)C(=O)N[C@@H](CO)C(=O)N[C@@H](CCCNC(=N)N)C(=O)N[C@@H](Cc1ccc(O)cc1)C(=O)N[C@@H](CCCNC(=N)N)C(=O)N[C@@H](CCCCN)C(=O)N[C@@H](CCC(N)=O)C(=O)N[C@@H](CC(C)C)C(=O)N[C@@H](C)C(=O)N[C@H](C(=O)N[C@@H](CCCCN)C(=O)N[C@@H](CCCCN)C(=O)N[C@@H](Cc1ccc(O)cc1)C(=O)N[C@@H](CC(C)C)C(=O)N[C@@H](C)C(=O)N[C@@H](C)C(=O)N[C@H](C(=O)N[C@@H](C)C(N)=O)C(C)C)C(C)C)[C@@H](C)O [Peptide 20] (Ac-HS[Ala(1H-tetrazol-5-yl)]GIFT[Ala(1H-tetrazol-5-yl)]SYSRYRKQLAVKKYLAAVA-NH2) | 93.9 | 91.8 |
